Assay results reported in US9427415B2, “Methods and compositions for modifying sensorial perception” (The Procter & Gamble Company, priority 2014, dated 2016).
Where “and” joins values, the source holds several entries; their conditions need not be identical. Identical values can stand only once. Like-named read-outs stand apart in the source and are kept apart here.

What was measured:
human TRPA1 = target: T1, human TRPA1 (Homo sapiens, UniProt O75762, K186N/R3C/R58T); assay: Intracellular calcium (Fluo-4, FLIPR) activation of TRPA1 cells by GRAS compounds; type: cell-based; conditions: for activation at 1000 µM / activation at 100 µM: read-out: A1 activation, % of agonist value;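 on all read-outs here: TRPA1-expressing cells, fluorescence read on a FLIPR Tetra (ex 488 nm, em 514 nm) every 2 s for 10 min after compound addition, baseline subtracted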
T1 construct: expressed in transfected cells; pcDNA3 control cells

TRPA1V1 = assay: Intracellular calcium (Fluo-4, FLIPR) activation of TRPA1V1 cells (co-expressing TRPA1 and TRPV1) by GRAS compounds; type: cell-based, human;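 further: HEK293 cells co-expressing TRPA1 and TRPV1, fluorescence read at 488/514 nm after baseline subtraction, recorded every 2 s over 10 min, ionomycin 10 µM and buffer as controls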
[1] = Table 1(d), 1 mM, relative to AITC 30 μM
[2] = Table 1(c), 1 mM, relative to AITC 30 μM
[3] = Table 1(c), 100 μM (*), relative to AITC 30 μM
[4] = Table 1(e), 1 mM, relative to AITC 30 μM
[5] = Table 1(d), 100 μM (*), relative to AITC 30 μM

T1 sequence (O75762 whole entry R3C/R58T/K186N): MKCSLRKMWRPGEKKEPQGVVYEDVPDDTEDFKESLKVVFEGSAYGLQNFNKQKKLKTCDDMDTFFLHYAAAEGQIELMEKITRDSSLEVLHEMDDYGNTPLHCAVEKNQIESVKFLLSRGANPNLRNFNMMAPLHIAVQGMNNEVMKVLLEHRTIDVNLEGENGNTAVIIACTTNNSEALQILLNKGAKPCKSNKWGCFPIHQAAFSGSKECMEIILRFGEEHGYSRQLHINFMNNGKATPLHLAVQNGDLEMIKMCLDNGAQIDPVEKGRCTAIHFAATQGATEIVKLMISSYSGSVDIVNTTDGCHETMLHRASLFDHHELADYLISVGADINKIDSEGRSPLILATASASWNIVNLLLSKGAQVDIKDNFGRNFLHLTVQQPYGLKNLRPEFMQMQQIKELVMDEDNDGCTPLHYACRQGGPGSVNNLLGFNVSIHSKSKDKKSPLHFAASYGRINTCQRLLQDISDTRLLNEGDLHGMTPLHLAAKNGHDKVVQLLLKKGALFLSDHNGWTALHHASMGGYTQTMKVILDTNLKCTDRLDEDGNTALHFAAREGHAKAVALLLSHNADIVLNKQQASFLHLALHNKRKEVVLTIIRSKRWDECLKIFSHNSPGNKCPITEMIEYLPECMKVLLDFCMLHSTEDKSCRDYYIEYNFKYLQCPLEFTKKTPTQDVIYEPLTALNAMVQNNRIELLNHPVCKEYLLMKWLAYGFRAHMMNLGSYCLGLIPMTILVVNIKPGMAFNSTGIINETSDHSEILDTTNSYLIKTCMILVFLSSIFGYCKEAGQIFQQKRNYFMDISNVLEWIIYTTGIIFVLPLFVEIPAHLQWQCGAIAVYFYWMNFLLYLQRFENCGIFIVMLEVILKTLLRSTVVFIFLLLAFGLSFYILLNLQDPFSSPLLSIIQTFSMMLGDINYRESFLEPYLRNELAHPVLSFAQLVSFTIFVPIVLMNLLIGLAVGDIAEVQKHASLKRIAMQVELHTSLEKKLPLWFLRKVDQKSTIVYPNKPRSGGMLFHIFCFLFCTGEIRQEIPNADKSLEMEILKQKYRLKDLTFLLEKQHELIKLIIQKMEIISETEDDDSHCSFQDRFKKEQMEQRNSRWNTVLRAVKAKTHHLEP

## CCC(=O)C=CC1C(C)=CCCC1(C)C (stereo not drawn)
Human TRPA1; [1]
  A1 activation, % of agonist value: 97.3%
TRPA1V1; [1]
  A1V1 activation, % of agonist value: 69.7%

## 2-mercaptopropanoate
Human TRPA1; [1]
  A1 activation, % of agonist value: 101.5%
TRPA1V1; [1]
  A1V1 activation, % of agonist value: 54.3%

## 3-mercaptopropanoate
Human TRPA1; [2]
  A1 activation, % of agonist value: 42.7%
TRPA1V1; [2]
  A1V1 activation, % of agonist value: 41.8%

## CC(=O)/C=C/C1C(C)=CCCC1(C)C (racemic) [(+/−)-Alpha-Ionone]
Human TRPA1; [2]
  A1 activation, % of agonist value: 64.62%
TRPA1V1; [2]
  A1V1 activation, % of agonist value: 64.21%

## CC(C)[C@@H]1CC[C@@H](C)C[C@H]1O (racemic) [DL-Menthol]
Human TRPA1; [2]
  A1 activation, % of agonist value: 54.02%
TRPA1V1; [2]
  A1V1 activation, % of agonist value: 43.05%

## C=C(C)C1CC=C(C)C(OC(C)=O)C1 (single isomer, unassigned; (-)) [(−)-Carvyl acetate]
Human TRPA1; [2]
  A1 activation, % of agonist value: 31.2%
TRPA1V1; [2]
  A1V1 activation, % of agonist value: 37%

## Cc1c(C(=O)O)c(O)cc2c1C(=O)c1c(O)c(C3O[C@H](CO)[C@@H](O)[C@H](O)[C@H]3O)c(O)c(O)c1C2=O (stereo in doubt) [Carmine]
Human TRPA1; [2]
  activation at 1000 µM: 66.2%
TRPA1V1; [2]
  A1V1 activation, % of agonist value: 61.54%

## CC(S)CS (stereo not drawn) [1,2-Propanedithiol]
Human TRPA1; [3]
  A1 activation, % of agonist value: 65.8%
Human TRPA1; [2]
  A1 activation, % of agonist value: 66%
TRPA1V1; [3]
  A1V1 activation, % of agonist value: 65.4%
TRPA1V1; [2]
  A1V1 activation, % of agonist value: 73.3%

## SCCCCCCS [1,6-Hexanedithiol]
Human TRPA1; [2]
  activation at 1000 µM: 68.6%
TRPA1V1; [2]
  A1V1 activation, % of agonist value: 54%

## O=CC1=CCCCC1 [1-Cyclohexene-1-carboxaldehyde]
Human TRPA1; [2]
  activation at 1000 µM: 45.9%
TRPA1V1; [2]
  A1V1 activation, % of agonist value: 48.37%

## C/C=C(\C)C(=O)OC(CC)CCCCC (stereo not drawn) [1-Ethylhexyl Tiglate]
Human TRPA1; [1]
  activation at 1000 µM: 50.6%
TRPA1V1; [1]
  A1V1 activation, % of agonist value: 31.87%

## Cn1cccc1C=O [1-Methylpyrrole-2-carboxaldehyde]
Human TRPA1; [2]
  activation at 1000 µM: 81.1%
TRPA1V1; [2]
  A1V1 activation, % of agonist value: 87.70%

## CCCCCC=CC=CCO [2,4-Decadienol]
Human TRPA1; [2]
  activation at 1000 µM: 48.6%
TRPA1V1; [2]
  A1V1 activation, % of agonist value: 52.2%

## Cc1ccc(C=O)c(C)c1 [2,4-Dimethylbenzaldehyde]
Human TRPA1; [2]
  activation at 1000 µM: 107%
TRPA1V1; [2]
  A1V1 activation, % of agonist value: 102.8%

## CC=CC=CCO [2,4-Hexadienol]
Human TRPA1; [2]
  activation at 1000 µM: 78%
TRPA1V1; [2]
  A1V1 activation, % of agonist value: 78.68%

## CC=CC=CCOC(=O)CC [2,4-Hexadienyl propionate]
Human TRPA1; [2]
  activation at 1000 µM: 93.2%
TRPA1V1; [2]
  A1V1 activation, % of agonist value: 91.20%

## CCCC=CC=CC=O [2,4-Octadienal]
Human TRPA1; [2]
  activation at 1000 µM: 80.9%
TRPA1V1; [2]
  A1V1 activation, % of agonist value: 82.7%

## CC1(O)CSC(C)(O)CS1 (stereo not drawn) [2,5-dimethyl-1,4-dithilane-2,5-diol]
Human TRPA1; [3]
  A1 activation, % of agonist value: 77.5%
TRPA1V1; [3]
  A1V1 activation, % of agonist value: 87.2%

## Cc1cccc(C)c1S [2,6-Dimethylthiophenol]
Human TRPA1; [2]
  activation at 1000 µM: 84.4%
TRPA1V1; [2]
  A1V1 activation, % of agonist value: 85.5%

## CC/C=C\CC/C=C/C(OCC)OCC [2,6-Nonadiene, 1,1-diethoxy-, (E,Z)-]
Human TRPA1; [2]
  activation at 1000 µM: 89.3%
TRPA1V1; [2]
  A1V1 activation, % of agonist value: 74.31%

## CC(=O)c1ccc2ccccc2c1 [2-Acetylnaphthalene]
Human TRPA1; [2]
  activation at 1000 µM: 60.3%
TRPA1V1; [2]
  A1V1 activation, % of agonist value: 69.41%

## O=C(CCl)c1ccccc1 [2-Chloroacetophenone]
Human TRPA1
  activation at 100 µM: 93.6%
  activation at 1000 µM: 91.4%
TRPA1V1; [3]
  A1V1 activation, % of agonist value: 88.8%
TRPA1V1; [2]
  A1V1 activation, % of agonist value: 103%

## CCCCCCCCCC=CC=O [2-Dodecenal]
Human TRPA1; [4]
  activation at 1000 µM: 65.5%
TRPA1V1; [4]
  A1V1 activation, % of agonist value: 82.8%

## CCC(CC)C(=O)O [2-Ethylbutyric acid]
Human TRPA1; [1]
  activation at 1000 µM: 67.7%
TRPA1V1; [1]
  A1V1 activation, % of agonist value: 34.87%

## Cc1ccc(CO)o1 [2-Furanmethanol, 5-methyl-]
Human TRPA1; [2]
  activation at 1000 µM: 77.3%
TRPA1V1; [2]
  A1V1 activation, % of agonist value: 76.02%

## O=C(OCCc1ccccc1)c1ccco1 [2-Furoic acid, phenethyl ester]
Human TRPA1; [2]
  activation at 1000 µM: 155%
TRPA1V1; [2]
  A1V1 activation, % of agonist value: 145%

## CC(=O)Cc1ccco1 [2-Furylacetone]
Human TRPA1; [2]
  activation at 1000 µM: 60.8%
TRPA1V1; [2]
  A1V1 activation, % of agonist value: 59.5%

## CCCCCC(=O)c1ccco1 [2-Hexanoylfuran]
Human TRPA1; [2]
  activation at 1000 µM: 118%
TRPA1V1; [2]
  A1V1 activation, % of agonist value: 109%

## CC=CC(=O)CC [2-Hexen-4-one]
Human TRPA1; [1]
  activation at 1000 µM: 53%
TRPA1V1; [1]
  A1V1 activation, % of agonist value: 24.5%

## CCCCCCCCCC(C)C=O (stereo not drawn) [2-Methylundecanal]
Human TRPA1; [3]
  activation at 100 µM: 54.9%
TRPA1V1; [3]
  A1V1 activation, % of agonist value: 57.3%

## CCCCCC=CC(=O)O [2-Octenoic acid]
Human TRPA1; [2]
  activation at 1000 µM: 55.9%
TRPA1V1; [2]
  A1V1 activation, % of agonist value: 61.77%

## CC=C(C=O)c1ccccc1 [2-Phenyl-2-butenal]
Human TRPA1
  activation at 1000 µM: 65.8%
TRPA1V1
  A1V1 activation, % of agonist value: 82.8%

## CC(C=O)c1ccccc1 (stereo not drawn) [2-Phenylpropionaldehyde]
Human TRPA1; [2]
  activation at 1000 µM: 105%
TRPA1V1; [2]
  A1V1 activation, % of agonist value: 106.9%

## CC(C)C(=O)OCC(C)c1ccccc1 (stereo not drawn) [2-Phenylpropyl isobutyrate]
Human TRPA1; [4]
  activation at 1000 µM: 67.4%
TRPA1V1; [4]
  A1V1 activation, % of agonist value: 102.3%

## CCCCCCCCCCC=CC=O [2-Tridecenal]
Human TRPA1; [5]
  activation at 100 µM: 76.3%
TRPA1V1; [2]
  A1V1 activation, % of agonist value: 102% and 101%
TRPA1V1; [5]
  A1V1 activation, % of agonist value: 43.5%

## CC/C=C\CC/C=C/C=O [2-trans-6-cis-Nonadienal]
Human TRPA1; [2]
  A1 activation, % of agonist value: 77.3%
TRPA1V1; [2]
  A1V1 activation, % of agonist value: 81.22%

## CC(=O)c1ccc(C)cc1C [2′,4′-Dimethylacetophenone]
Human TRPA1; [4]
  activation at 1000 µM: 24.4%
TRPA1V1; [4]
  A1V1 activation, % of agonist value: 45.30%

## C=C(C)CCCC(C)CCO (stereo not drawn) [3,7-Dimethyl-7-octen-1-ol]
Human TRPA1; [1]
  activation at 1000 µM: 93.7%
TRPA1V1; [1]
  A1V1 activation, % of agonist value: 70.7%

## OCC(=CCc1ccco1)c1ccccc1 [3-(2-Furfuryl)-2-phenylpropenol]
Human TRPA1; [3]
  A1 activation, % of agonist value: 81.3%
TRPA1V1; [3]
  A1V1 activation, % of agonist value: 72.4%

## O=CC=Cc1ccco1 [3-(2-Furyl)acrolein]
Human TRPA1; [2]
  activation at 1000 µM: 68.4%
TRPA1V1; [2]
  A1V1 activation, % of agonist value: 66.5%

## CCCC(CCOC(C)=O)SC(C)=O (stereo not drawn) [3-(Acetylmercapto)hexyl acetate]
Human TRPA1; [4]
  activation at 1000 µM: 22.3%
TRPA1V1; [4]
  A1V1 activation, % of agonist value: 52.79%

## CCCC(CCOC(C)=O)SC (stereo not drawn) [3-(Methylthio)hexyl acetate]
Human TRPA1; [2]
  activation at 1000 µM: 97.9%
TRPA1V1; [2]
  A1V1 activation, % of agonist value: 87.6%

## CSCCC=O [3-(Methylthio)propionaldehyde]
Human TRPA1; [1]
  activation at 1000 µM: 53.8%
TRPA1V1; [1]
  A1V1 activation, % of agonist value: 32.4%

## CC(=O)c1cc(C)oc1C [3-Acetyl-2,5-dimethylfuran]
Human TRPA1; [2]
  activation at 1000 µM: 73.5%
TRPA1V1; [2]
  A1V1 activation, % of agonist value: 61%

## C=CCCN=C=S [3-Butenyl isothiocyanate]
Human TRPA1; [2]
  activation at 1000 µM: 99.4%
TRPA1V1; [2]
  A1V1 activation, % of agonist value: 85.8%

## CCCC=C1OC(=O)c2ccccc21 [3-Butylidenephthalide]
Human TRPA1; [2]
  activation at 1000 µM: 119%
TRPA1V1; [2]
  A1V1 activation, % of agonist value: 115.4%

## CCCC=CC(C)=O [3-Hepten-2-one]
Human TRPA1; [1]
  activation at 1000 µM: 82%
TRPA1V1; [1]
  A1V1 activation, % of agonist value: 59%

## CC1=CC(=O)CCC1 [3-Methyl-2-cyclohexen-1-one]
Human TRPA1; [2]
  activation at 1000 µM: 94.5%
TRPA1V1; [2]
  A1V1 activation, % of agonist value: 94.76%

## CC(C)CCN=C=S [3-Methylbutyl isothiocyanate]
Human TRPA1; [4]
  activation at 1000 µM: 61.1%
TRPA1V1; [4]
  A1V1 activation, % of agonist value: 111.2%

## CC=CC(C)=O [3-Penten-2-one]
Human TRPA1; [1]
  activation at 1000 µM: 64.2%
TRPA1V1; [1]
  A1V1 activation, % of agonist value: 35%

## CC1=NC(CC(C)C)SC1C (stereo not drawn) [3-Thiazoline, 4,5-dimethyl-2-isobutyl-]
Human TRPA1; [2]
  activation at 1000 µM: 142%
TRPA1V1; [2]
  A1V1 activation, % of agonist value: 138.7%

## Ammonium carbonate
TRPA1V1; [2]
  A1V1 activation, % of agonist value: 58.42%
